Assays:
[1] = system: phosphorylation of ROS1, AKT, ERK in NIH-3T3 (CD74-ROS1) cells; test: Western blot of ROS1 and downstream signaling phosphorylation; type: cell-based; details: 2 h incubation
Method: (§1) In general, the cells were exposed to the drug and were harvested for western blot analysis. SDS-PAGE was used to separate the proteins of interest, which were then transferred to a nitrocellulose (NC) filtration membrane and soaked in a blocking solution [5% non-fat dry milk in tris-buffered saline with Tween 20 (TBST)] for 1 h at room temperature. Thereafter, the membrane was probed overnight with primary antibodies at 4℃ and washed three times with TBST. The corresponding secondary antibody diluent was added, incubated at room temperature for 1 h, and washed 3 times with TBST. After adding the enhanced chemiluminescence developer to the NC filtration membrane, it is developed in the imaging system (ChemiDoc™ XRS^+, BIO-RAD). See Supplementary Table 2 for details of the antibodies used.
(§2) It is reported that ROS1-mediated cell signaling pathways include RAS-RAF-MEK-ERK, PI3K-AKT-mTOR and JAK-STAT3 pathways. According to reports and the differences in the expression of signaling pathway proteins in different cells, the key signaling proteins in different signaling pathways were selected for research.

[2] = system: phosphorylation of ROS1, ERK, SHP-1 in Ba/F3 (SLC34A2-ROS1) cells; test: as above; type: cell-based; details: 2 h incubation
Method: as §1, §2

[3] = molecular target: EGFR wild type (Homo sapiens, UniProt P00533); test: Z'-LYTE kinase selectivity; details: read-out: IC50 EGFR wild type
[4] = molecular target: T1, OATP1B1 (Homo sapiens, UniProt Q9Y6L6); test: Uptake inhibitor investigation in HEK293 cells expressing transporter; type: in vitro ADME
T1 construct: No ESH6G27; host or cells: HEK293
T1 sequence (Q9Y6L6 1-691): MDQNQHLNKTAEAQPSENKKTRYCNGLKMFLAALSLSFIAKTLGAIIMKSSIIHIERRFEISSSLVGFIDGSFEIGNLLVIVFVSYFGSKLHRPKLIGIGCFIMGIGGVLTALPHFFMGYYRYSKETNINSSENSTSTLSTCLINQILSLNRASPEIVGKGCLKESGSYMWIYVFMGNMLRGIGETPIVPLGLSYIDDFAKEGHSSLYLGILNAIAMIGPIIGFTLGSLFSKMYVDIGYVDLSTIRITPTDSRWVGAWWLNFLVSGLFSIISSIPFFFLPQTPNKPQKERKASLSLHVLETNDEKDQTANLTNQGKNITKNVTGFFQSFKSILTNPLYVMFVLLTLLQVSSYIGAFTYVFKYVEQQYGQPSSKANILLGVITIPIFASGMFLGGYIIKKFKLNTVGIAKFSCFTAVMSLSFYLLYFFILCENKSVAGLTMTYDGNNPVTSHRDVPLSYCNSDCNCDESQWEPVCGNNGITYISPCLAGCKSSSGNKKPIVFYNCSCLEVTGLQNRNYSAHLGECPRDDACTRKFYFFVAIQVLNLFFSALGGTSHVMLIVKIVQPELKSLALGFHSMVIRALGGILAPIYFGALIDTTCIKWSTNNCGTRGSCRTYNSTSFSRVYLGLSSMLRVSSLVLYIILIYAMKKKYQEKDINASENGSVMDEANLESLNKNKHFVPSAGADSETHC

[5] = molecular target: T2, OCT2 (Homo sapiens, UniProt O15244); test: as above; type: in vitro ADME; details: metformin as the substrate
T2 construct: No ESH9G27; host or cells: HEK293
T2 sequence (O15244 1-555): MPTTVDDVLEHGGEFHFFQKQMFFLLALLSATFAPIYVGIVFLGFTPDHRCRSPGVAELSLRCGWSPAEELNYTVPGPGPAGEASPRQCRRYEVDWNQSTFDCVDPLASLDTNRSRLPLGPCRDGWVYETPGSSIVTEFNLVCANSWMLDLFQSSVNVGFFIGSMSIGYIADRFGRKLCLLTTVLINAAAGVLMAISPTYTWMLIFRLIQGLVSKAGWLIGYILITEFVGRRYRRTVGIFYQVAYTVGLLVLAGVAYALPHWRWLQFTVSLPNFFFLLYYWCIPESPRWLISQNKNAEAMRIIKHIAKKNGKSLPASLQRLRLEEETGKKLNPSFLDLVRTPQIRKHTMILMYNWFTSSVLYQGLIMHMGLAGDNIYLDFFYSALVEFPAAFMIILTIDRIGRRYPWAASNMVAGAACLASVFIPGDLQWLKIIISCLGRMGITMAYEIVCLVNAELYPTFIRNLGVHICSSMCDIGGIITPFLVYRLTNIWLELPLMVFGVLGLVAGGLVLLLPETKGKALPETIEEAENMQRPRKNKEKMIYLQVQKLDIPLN

[6] = human, HEK293 cells expressing OATP1B1, probe ATV (atorvastatin), 1 μM, read-out: Inhibition rate

Sequence of EGFR wild type (P00533 25-1210): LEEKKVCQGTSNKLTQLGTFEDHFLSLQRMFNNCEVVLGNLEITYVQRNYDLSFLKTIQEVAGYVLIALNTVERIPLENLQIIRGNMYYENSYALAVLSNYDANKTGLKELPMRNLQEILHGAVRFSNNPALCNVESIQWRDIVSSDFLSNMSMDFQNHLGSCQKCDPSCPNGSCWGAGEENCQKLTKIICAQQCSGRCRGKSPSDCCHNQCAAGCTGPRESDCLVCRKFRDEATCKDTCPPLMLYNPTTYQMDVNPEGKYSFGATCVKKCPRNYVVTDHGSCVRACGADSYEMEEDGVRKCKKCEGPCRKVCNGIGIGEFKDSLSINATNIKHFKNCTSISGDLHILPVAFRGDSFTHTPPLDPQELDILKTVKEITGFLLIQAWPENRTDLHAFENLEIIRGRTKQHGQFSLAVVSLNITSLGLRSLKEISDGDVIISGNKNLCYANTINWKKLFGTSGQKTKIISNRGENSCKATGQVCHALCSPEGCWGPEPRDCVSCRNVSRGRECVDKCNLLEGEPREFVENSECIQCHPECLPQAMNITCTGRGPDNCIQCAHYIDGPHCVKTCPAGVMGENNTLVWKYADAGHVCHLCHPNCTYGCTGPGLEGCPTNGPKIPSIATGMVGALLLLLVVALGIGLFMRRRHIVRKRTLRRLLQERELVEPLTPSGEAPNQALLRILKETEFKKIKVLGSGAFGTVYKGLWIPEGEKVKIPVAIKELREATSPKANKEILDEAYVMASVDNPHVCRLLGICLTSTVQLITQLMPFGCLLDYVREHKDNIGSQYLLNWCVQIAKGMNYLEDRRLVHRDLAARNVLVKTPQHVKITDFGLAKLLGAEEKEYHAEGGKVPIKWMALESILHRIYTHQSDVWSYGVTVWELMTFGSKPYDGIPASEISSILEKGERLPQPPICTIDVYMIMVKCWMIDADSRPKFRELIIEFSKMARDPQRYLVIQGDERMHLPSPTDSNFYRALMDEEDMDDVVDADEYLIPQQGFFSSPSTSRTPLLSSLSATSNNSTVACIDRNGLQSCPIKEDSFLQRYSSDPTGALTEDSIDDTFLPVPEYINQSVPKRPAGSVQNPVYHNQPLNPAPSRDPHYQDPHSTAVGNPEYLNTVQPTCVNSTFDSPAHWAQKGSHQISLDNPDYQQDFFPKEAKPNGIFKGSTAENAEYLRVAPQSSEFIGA

Compound: COc1cc(N2CCC3(CCN(C)CC3)CC2)ccc1Nc1ncc(Cl)c(Nc2ccccc2P(C)(C)=O)n1 [Iruplinalkib]
- phosphorylation levels of ROS1, AKT, ERK [1]: inhibited
- phosphorylation levels of ROS1, ERK, SHP-1 [2]: inhibited
- IC50 [3]: 0.035 µM
- inhibition of OATP1B1 uptake activity ([4]; HEK293): can inhibit the uptake activity
- inhibition at 0.5 μM [4, 6]: 26.5%
- inhibition at 5 μM [4, 6]: 28.9%
- inhibition at 50 μM [4, 6]: 67.8%
- inhibition of OCT2 uptake [5]: only a weak inhibitory effect

Source: paper PMC10140010 (Investigational New Drugs, 2023)
